The text below walks through data of ChEMBL document CHEMBL5365485 (J Med Chem, 2023).

Activity calls are given as the source filed them. The calls are words filed in the database; no cut-off is given here.

Assay [1] addresses T1, Von Hippel-Lindau disease tumor suppressor/Elongin B/Elongin C (Homo sapiens, UniProt P40337). The assay can be described thus: Inhibition of VHL/Elongin B/Elongin C (unknown origin) using FAM-DEALA-Hyp-YIPD as substrate by fluorescence polarization assay. The class given is protein-complex assay. (Fluorescence polarisation rises when a labelled molecule tumbles more slowly, as on binding a larger partner.)

The target in assay [2] is Hypoxia-inducible factor 1-alpha (Homo sapiens) (UniProt Q16665). The assay can be described thus: Stabilization of hydroxylated HIF-1alpha in HEK293 cells at 50 uM incubated for 2 hrs by Western blot analysis relative to VH298. The class given is cell-based. Background: Immunoblotting shows a protein as a band on a membrane.
Chain of Hypoxia-inducible factor 1-alpha (Homo sapiens) (Q16665 whole entry, looked up): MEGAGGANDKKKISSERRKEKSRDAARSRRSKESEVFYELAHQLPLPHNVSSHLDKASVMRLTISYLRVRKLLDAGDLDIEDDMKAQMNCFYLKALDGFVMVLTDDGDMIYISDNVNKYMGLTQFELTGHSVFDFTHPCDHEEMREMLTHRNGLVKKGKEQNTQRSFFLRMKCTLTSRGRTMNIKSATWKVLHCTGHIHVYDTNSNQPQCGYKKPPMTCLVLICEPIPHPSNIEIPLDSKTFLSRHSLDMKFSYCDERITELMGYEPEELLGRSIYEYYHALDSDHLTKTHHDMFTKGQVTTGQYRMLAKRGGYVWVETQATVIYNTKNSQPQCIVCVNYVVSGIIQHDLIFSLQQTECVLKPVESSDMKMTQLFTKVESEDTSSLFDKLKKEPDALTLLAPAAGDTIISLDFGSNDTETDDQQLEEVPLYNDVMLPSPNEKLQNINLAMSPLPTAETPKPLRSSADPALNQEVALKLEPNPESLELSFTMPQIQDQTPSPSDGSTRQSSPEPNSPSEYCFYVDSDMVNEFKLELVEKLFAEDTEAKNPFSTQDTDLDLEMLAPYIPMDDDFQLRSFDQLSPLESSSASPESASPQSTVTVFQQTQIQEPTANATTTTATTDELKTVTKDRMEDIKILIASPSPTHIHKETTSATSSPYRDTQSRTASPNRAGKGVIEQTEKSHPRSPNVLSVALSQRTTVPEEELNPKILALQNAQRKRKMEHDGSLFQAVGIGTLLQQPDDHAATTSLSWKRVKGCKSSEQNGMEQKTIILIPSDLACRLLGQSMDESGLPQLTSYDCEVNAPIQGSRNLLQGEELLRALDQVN
The target is the same in assay [3]. The assay can be described thus: Stabilization of HIF-1alpha in HEK293 cells at 50 uM incubated for 2 hrs by Western blot analysis relative to VH298. The class given is cell-based.
For assay [4] the target is unchanged. The assay is described as follows: Stabilization of hydroxylated HIF-1alpha in human HeLa cells at 50 uM incubated for 2 hrs by Western blot analysis relative to VH298. The class given is cell-based.
Assay [5] has as its target Von Hippel-Lindau disease tumor suppressor/Elongin B/Elongin C (Homo sapiens) (UniProt P40337+Q15370+Q15369). The assay is described as follows: Binding affinity to biotinylated VHL/Elongin B/Elongin C (unknown origin) immobilized in SA sensor chip assessed as second-order on-rate constant for association (Kon) by SPR analysis. The class given is protein-complex assay.

Assay [6] addresses Hypoxia-inducible factor 1-alpha (Homo sapiens) (UniProt Q16665). The assay can be described thus: Stabilization of HIF-1alpha in human HeLa cells at 50 uM incubated for 2 hrs by Western blot analysis relative to VH298. The class given is cell-based.
For assay [7] the target is unchanged. The assay can be described thus: Induction of HIF-1alpha transcription activity in human HeLa cells incubated for 32 hrs by HRE-luciferase based assay. The class given is cell-based.
Assay [8] has the same target. The assay is described as follows: Induction of HIF-1alpha transcription activity in human HeLa cells assessed as increase in CA9 mRNA level at 50 uM incubated for 16 hrs by RT-qPCR analysis. The class given is cell-based. On the technique in general: Real-time PCR tracks product formation cycle by cycle.
The target is the same in assay [9]. The assay is described as follows: Induction of HIF-1alpha transcription activity in human U2OS cells incubated for 32 hrs by HRE-luciferase based assay. The class given is cell-based.
The target is the same in assay [10]. The assay is described as follows: Induction of HIF-1alpha transcription activity in human HeLa cells at 150 uM incubated for 32 hrs by HRE-luciferase based assay. The class given is cell-based.
Assay [11] has the same target. The assay is described as follows: Induction of HIF-1alpha transcription activity in human U2OS cells at 150 uM incubated for 32 hrs by HRE-luciferase based assay. The class given is cell-based.
Assay [12] relates to HeLa. The assay can be described thus: Upregulation of HIF-1alpha level in human HeLa cells at 50 uM incubated for 1 hr by immunoblot analysis. The class given is functional, cell-based.
Assay [13] has as its system HeLa. The assay is described as follows: Upregulation of hydroxylated HIF-1alpha level in human HeLa cells at 50 uM incubated for 1 hr by immunoblot analysis. The class given is functional, cell-based.
Assay [14] concerns the target T2, von Hippel-Lindau disease tumor suppressor (Homo sapiens, UniProt P40337). The assay can be described thus: Inhibition of NanoLuc-fused VHL (unknown origin) transfected in live HEK293 cells using NanoGlo substrate incubated for 30 mins by tracer based NanoBRET assay. The class given is cell-based.
The test system of assay [15] is HeLa. The assay is described as follows: Upregulation of hydroxylated HIF-1alpha level in human HeLa cells at 10 to 100 uM incubated for 1 hr by immunoblot analysis. The class given is functional, cell-based. As to conditions: dose 10-100 µM.
The target of assay [16] is T2, von Hippel-Lindau disease tumor suppressor. The assay can be described thus: Inhibition of NanoLuc-fused VHL (unknown origin) transfected in permeabilized HEK293 cells using NanoGlo substrate incubated for 30 mins by tracer based NanoBRET assay. The class given is cell-based.
Assay [17] concerns HeLa. The assay is described as follows: Upregulation of HIF-1alpha level in human HeLa cells at 10 to 100 uM incubated for 1 hr by immunoblot analysis. The class given is functional, cell-based. To be noted: dose 10-100 µM.
Assay [18] deals with T1, Von Hippel-Lindau disease tumor suppressor/Elongin B/Elongin C. The assay is described as follows: Binding affinity to biotinylated VHL/Elongin B/Elongin C (unknown origin) immobilized in SA sensor chip assessed as dissociation constant by SPR analysis. The class given is protein-complex assay.
For assay [19] the target is unchanged. The assay is described as follows: Binding affinity to VHL (54 to 213 residues)/N-terminal Avi-tagged biotinylated-Elongin B (1 to 104 residues)/Elongin C (17 to 112 residues) (unknown origin) expressed in Escherichia coli cells immobilized in SA sensor chip assessed as dissociation constant by SPR analysis.
Assay [20] shares this target. The assay can be described thus: Binding affinity to N-terminal His6-tagged VHL (54 to 213 residues)/Elongin B (1 to 104 residues)/Elongin C (17 to 112 residues) (unknown origin) expressed in Escherichia coli BL21(DE3) cells assessed as dissociation constant by ITC analysis.

T2 sequence (P40337 whole entry, the tested form may be a part): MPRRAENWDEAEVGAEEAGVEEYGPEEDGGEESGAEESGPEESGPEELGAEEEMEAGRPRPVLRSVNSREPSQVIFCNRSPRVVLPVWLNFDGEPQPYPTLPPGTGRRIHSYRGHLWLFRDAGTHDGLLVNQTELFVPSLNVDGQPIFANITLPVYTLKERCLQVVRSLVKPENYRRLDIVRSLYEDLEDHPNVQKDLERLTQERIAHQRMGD
T1 sequence (P40337 whole entry, looked up): as the sequence (P40337 whole entry, the tested form may be a part) above
Chain of Von Hippel-Lindau disease tumor suppressor/Elongin B/Elongin C (Homo sapiens) (P40337 whole entry, looked up): as the sequence (P40337 whole entry, the tested form may be a part) above
Chain of Von Hippel-Lindau disease tumor suppressor/Elongin B/Elongin C (Homo sapiens) (Q15369 whole entry, looked up): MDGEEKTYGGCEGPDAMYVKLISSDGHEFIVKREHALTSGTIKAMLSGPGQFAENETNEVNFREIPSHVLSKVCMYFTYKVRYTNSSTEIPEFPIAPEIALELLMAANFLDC
Chain of Von Hippel-Lindau disease tumor suppressor/Elongin B/Elongin C (Homo sapiens) (Q15370 whole entry, looked up): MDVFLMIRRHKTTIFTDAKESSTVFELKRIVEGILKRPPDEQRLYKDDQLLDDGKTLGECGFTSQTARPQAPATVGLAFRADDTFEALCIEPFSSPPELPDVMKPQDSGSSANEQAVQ

Broadly, the IC50 is the concentration at which inhibition is half-maximal. Read a low IC50 as higher potency. The compound `Cc1ncsc1-c1ccc(CNC(=O)[C@@H]2C[C@@H](O)CN2C(=O)Cc2cccc(N)c2C)cc1` displayed an IC50 in assay [1] of 900 nM. This counts as sub-micromolar.

As for `COc1cc(-c2scnc2C)c(F)cc1CNC(=O)[C@@H]1C[C@@H](O)CN1C(=O)[C@@H](NC(=O)C1(F)CC1)C(C)(C)C`, the Activity in assay [2] stood at 68%; in [3], 73%; in assay [4], 98%; in assay [6], 95%. Moreover, in assay [5], the K was 1 10^6/M/s.

For `Cc1ncsc1-c1ccc(CNC(=O)[C@@H]2C[C@@H](O)CN2C(=O)[C@@H](NC(=O)C2(C#N)CC2)C(C)(C)C)cc1`, the Activity result in [7] and in [9] was “Dose-Dependent Effect” throughout. The outcome in assay [8] was Active.

Take `Cc1ncsc1-c1ccc([C@H](C)NC(=O)[C@@H]2C[C@@H](O)CN2C(=O)[C@@H](NC(=O)C2(C#N)CC2)C(C)(C)C)cc1F`: the Activity in assay [2] was found to be 52%; in [3], 48%; in [4] it was 123%; in assay [6], 105%.

With `Cc1cc(-c2scnc2C)ccc1CNC(=O)[C@@H]1C[C@@H](O)CN1C(=O)[C@@H](NC(=O)C1(C#N)CC1)C(C)(C)C`, the Activity was determined as 66% in assay [2], 78% in assay [3], 88% in assay [4] and 89% in assay [6].

Take `Cc1ncsc1-c1ccc(CNC(=O)[C@@H]2C[C@H](O)CN2C(=O)[C@@H](NC(=O)C2(C#N)CC2)C(C)(C)C)cc1`: the result (in assay [10]; in assay [11]; with HeLa [12]; in the assay on HeLa [13]) was inactive.

On to `Cc1cc(-c2scnc2C)ccc1CNC(=O)[C@@H]1C[C@@H](O)CN1C(=O)[C@@H](NC(=O)C1(F)CC1)C(C)(C)C`, for which the Activity is 69% in [2], 78% in assay [3], 120% in assay [4] and 116% in assay [6]. The K in assay [5] is 1 10^6/M/s.

In turn, `Cc1cc(-c2scnc2C)c(F)cc1[C@H](C)NC(=O)[C@@H]1C[C@@H](O)CN1C(=O)[C@@H](NC(=O)C1(F)CC1)C(C)(C)C` showed an IC50 in assay [14] of 366 nM. Also, the Activity amounted to 137% in assay [2], 152% in [3], 217% in assay [4] and 155% in assay [6]. Moreover, in assay [5], the K was 1 10^6/M/s.

For `Cc1cc(-c2scnc2C)ccc1[C@H](C)NC(=O)[C@@H]1C[C@@H](O)CN1C(=O)[C@@H](NC(=O)C1(F)CC1)C(C)(C)C`, the Activity entry in [7] is “Dose-Dependent Effect”; in assay [2], 208%; in [3], 224%; in assay [4] it was 263%; in assay [9] it was “Dose-Dependent Effect”; in [6] it was 182%. In addition, the IC50 in assay [14] came out at 164 nM; in assay [16], 122 nM. Further, the outcome (in [8]; with HeLa [15]; in the assay on HeLa [17]) was Active. The K in assay [5] is 1 10^6/M/s.

As usually defined, the Kd is the concentration at which binding is half-saturated. Take `Cc1cc(-c2scnc2C)c(F)cc1CNC(=O)[C@@H]1C[C@@H](O)CN1C(=O)[C@@H](NC(=O)C1(F)CC1)C(C)(C)C`: the Activity was found to be 76% in assay [2], 110% in assay [3], 153% in [4] and 124% in [6]. In addition, the K in assay [5] is 1 10^6/M/s. Also, the Kd in [18] is 72 nM.

For `COc1cc(-c2scnc2C)c(F)cc1[C@H](C)NC(=O)[C@@H]1C[C@@H](O)CN1C(=O)[C@@H](NC(=O)C1(F)CC1)C(C)(C)C`, the Activity entry in assay [7] was “Dose-Dependent Effect”; in [2] it was 137%; in [3], 145%; in assay [4], 179%; in assay [9], “Dose-Dependent Effect”; in assay [6] it was 128%. Besides, the result (in [8]; in the assay with HeLa [15]; in the assay with HeLa [17]) was Active.

For the compound `CC(=O)N[C@H](C(=O)N1C[C@H](O)C[C@H]1C(=O)NCc1ccc(-c2scnc2C)c(C(F)(F)F)c1)C(C)(C)C`, the Kd in assay [19] amounted to 2990 nM.

Turning to `CC(=O)N[C@H](C(=O)N1C[C@H](O)[C@H](F)[C@H]1C(=O)NCc1ccc(-c2scnc2C)cc1)C(C)(C)C`, in assay [20], the Kd worked out at 244 nM.

For the compound `Cc1ncsc1-c1ccc(CNC(=O)[C@@H]2C[C@@H](O)CN2C(=O)[C@@H](NC(=O)C2(C#N)CC2)C(C)(C)C)cc1F`, the Activity in [2] turned out to be 20%; in assay [3], 18%; in assay [4] it was 74%; in [6] it was 83%.

`CC(=O)N[C@H](C(=O)N1C[C@H](O)C[C@H]1C(=O)NCc1ccc(-c2scnc2C)cc1C(F)(F)F)C(C)(C)C`: in assay [19], the Kd came out at 268 nM.

Regarding `Cc1cc(-c2scnc2C)ccc1[C@H](C)NC(=O)[C@@H]1C[C@@H](O)CN1C(=O)[C@@H](NC(=O)C1(C#N)CC1)C(C)(C)C`, the Activity in assay [2] worked out at 110%; in [3], 90%; in assay [4], 221%; in [6], 155%.

Regarding `Cc1ncsc1-c1ccc([C@H](C)NC(=O)[C@@H]2C[C@@H](O)CN2C(=O)[C@@H](NC(=O)C2(F)CC2)C(C)(C)C)cc1F`, the Activity came out at 102% in assay [2], 92% in [3], 177% in [4] and 120% in [6]. Also, the K in assay [5] was 1 10^6/M/s.

`Cc1ncsc1-c1ccc(CNC(=O)[C@@H]2C[C@@H](O)CN2C(=O)[C@@H](NC(=O)C2(F)CC2)C(C)(C)C)cc1F`: the Activity is 75% in [2], 89% in [3], 108% in assay [4] and 107% in assay [6]. Besides, the K in assay [5] is 1 10^6/M/s.
